Reference: patent US10421754B2, “Quinazoline derivative” (CSPC ZHONGQI PHARMACEUTICAL TECHNOLOGY (SHIJIAZHUANG) CO., …, priority 2014, dated 2019)

Assays:
3T3swiss = assay: In vitro cell experiment (MTT), 3T3swiss; format: cell-based; conditions: Fibroblast, 72 h, mouse fibroblasts (PDGFR overexpressing)
How it was run: (§1)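 A 72 h MTT assay at 37° C, begun after 24 h cell growth, measures OD at 550 nm. Inhibition rates convert to IC50 by LOGIT.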

AXL = AXL (Homo sapiens, UniProt P30530); assay: In vitro enzyme experiment (ELISA), AXL; format: biochemical; conditions: Poly (Glu, Tyr)4:1 substrate, 5 μM ATP
Sequence of AXL (P30530 473-894): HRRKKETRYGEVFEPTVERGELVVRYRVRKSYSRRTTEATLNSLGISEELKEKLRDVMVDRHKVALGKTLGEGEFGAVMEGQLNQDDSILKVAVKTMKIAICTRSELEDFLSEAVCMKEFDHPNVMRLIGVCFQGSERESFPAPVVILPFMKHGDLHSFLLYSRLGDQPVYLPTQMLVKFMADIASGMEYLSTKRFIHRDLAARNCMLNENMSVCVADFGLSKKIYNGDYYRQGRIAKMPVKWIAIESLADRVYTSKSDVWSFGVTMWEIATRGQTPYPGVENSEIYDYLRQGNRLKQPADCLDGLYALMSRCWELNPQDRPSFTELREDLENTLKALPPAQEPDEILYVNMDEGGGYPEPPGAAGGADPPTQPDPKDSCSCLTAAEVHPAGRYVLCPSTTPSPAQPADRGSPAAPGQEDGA
Description: (§2) AXL: Anaplastic lymphoma kinase Methods: ELISA: The enzyme plate was coated by enzyme reaction substrate (Poly (Glu, Tyr)4:1) at a density of 20 μg/ml. Then the enzyme, the sample and 5 μM ATP were mixed in the well to react. After the reaction, the substrate phosphorylation was detected by anti-phosphotyrosine monoclonal antibody (4G10). In the next step, the goat-anti-mouse IgG linking with horse radish peroxidase (HRP) and tetramethylbenzidine (TMB) were added sequentially in the well to evaluate the level of substrate phosphorylation by the degree of color depth. In the experiment, a blank group without tyrosine kinase and a control group with the corresponding concentration of DMSO were established. Finally, 50 μL/well of H2SO4 at a concentration of 0.18M was added in each well to stop the reaction. The optical density (OD) of each sample was measured in a micro-plate reader at 450 nm. The relative inhibition rate of the compound against tyrosine kinase protein was determined. According to the inhibition rates at different concentrations, IC50 was calculated by LOGIT method. The experiments were repeated three times, and the average of three IC50 values was the final index to evaluate the ability of inhibition.

A498 = assay: In vitro cell experiment (MTT), A498; format: cell-based; conditions: 72 h, human renal carcinoma cells
Description: (§3) Cells in logarithmic growth phase were seeded at a certain density in a 96-well plate (200 μL/well). The cells were allowed to grow for 24 h and subsequently treated with different concentrations of drugs (including a blank group and a control group) and incubated for 72 h at 37° C. Each concentration in a given experiment was tested in triplicate. After 72 h of exposure, 20 μL of the MTT labeling reagent was added to the medium (the final concentration of MTT was 0.5 mg/mL), and the cells were incubated for additional 4 h at 37° C. Following this process, 180 μL of the medium was removed and 130 μL of DMSO was added to each well, or the medium was completely removed and 150 μL of DMSO was added to each well. Then the plate was shaken and mixed in a micro-oscillator. Finally the optical density (OD) of each sample was measured in a micro-plate reader at 550 nm. Cell inhibition rate was calculated according to the following formula: […]
(§4) According to cell inhibition rates, IC50 was calculated by LOGIT method. The experiments were repeated twice and the data was expressed as means±SD.

EGFR = EGFR (Homo sapiens, UniProt P00533); assay: In vitro enzyme experiment (ELISA), EGFR; format: biochemical; conditions: Poly (Glu, Tyr)4:1 substrate, 5 μM ATP
Sequence of EGFR (P00533 25-1210): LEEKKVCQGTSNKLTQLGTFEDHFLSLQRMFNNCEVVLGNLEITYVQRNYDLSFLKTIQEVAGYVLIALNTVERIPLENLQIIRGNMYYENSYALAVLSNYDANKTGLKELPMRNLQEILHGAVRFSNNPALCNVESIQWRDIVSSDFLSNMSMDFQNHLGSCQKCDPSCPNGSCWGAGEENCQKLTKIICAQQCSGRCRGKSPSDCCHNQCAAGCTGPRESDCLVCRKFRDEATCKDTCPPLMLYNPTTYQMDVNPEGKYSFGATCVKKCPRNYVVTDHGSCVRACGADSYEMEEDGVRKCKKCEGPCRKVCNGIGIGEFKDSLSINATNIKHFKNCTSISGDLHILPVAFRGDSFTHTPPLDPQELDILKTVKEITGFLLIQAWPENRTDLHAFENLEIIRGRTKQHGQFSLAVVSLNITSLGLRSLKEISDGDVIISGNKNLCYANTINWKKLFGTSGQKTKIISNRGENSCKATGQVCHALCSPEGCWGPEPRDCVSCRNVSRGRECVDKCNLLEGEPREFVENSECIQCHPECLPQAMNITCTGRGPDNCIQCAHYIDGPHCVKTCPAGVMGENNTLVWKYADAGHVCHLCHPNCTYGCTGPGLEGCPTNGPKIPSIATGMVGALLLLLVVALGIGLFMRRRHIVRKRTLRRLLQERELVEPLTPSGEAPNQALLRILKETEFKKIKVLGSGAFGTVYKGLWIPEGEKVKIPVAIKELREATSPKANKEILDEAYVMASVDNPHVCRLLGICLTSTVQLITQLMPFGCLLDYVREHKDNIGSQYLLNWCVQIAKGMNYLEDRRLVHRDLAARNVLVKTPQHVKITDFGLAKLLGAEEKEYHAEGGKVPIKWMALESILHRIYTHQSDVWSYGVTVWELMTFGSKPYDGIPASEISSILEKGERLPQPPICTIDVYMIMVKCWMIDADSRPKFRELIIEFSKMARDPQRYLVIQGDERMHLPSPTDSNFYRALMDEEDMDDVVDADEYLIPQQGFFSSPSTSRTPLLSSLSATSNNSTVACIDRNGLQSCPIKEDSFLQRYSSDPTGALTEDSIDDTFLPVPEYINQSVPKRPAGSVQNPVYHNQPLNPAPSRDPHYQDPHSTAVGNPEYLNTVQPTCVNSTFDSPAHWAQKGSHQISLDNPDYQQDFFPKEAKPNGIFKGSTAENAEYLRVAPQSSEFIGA
Description: EGFR: Human epidermal growth factor receptor 1
as §2, with “ELISA:” for “AXL: Anaplastic lymphoma kinase Methods: ELISA:”, “nm.” for “nm. The relative inhibition rate of the compound against tyrosine kinase protein was determined. According to the inhibition rates at different concentrations, IC50 was calculated by LOGIT method. The experiments were repeated three times, and the average of three IC50 values was the final index to evaluate the ability of inhibition.”
(§5) The relative inhibition rate of the compound against tyrosine kinase protein was determined.
(§6) According to the inhibition rates at different concentrations, IC50 was calculated by LOGIT method. The experiments were repeated three times, and the average of three IC50 values was the final index to evaluate the ability of inhibition.

TT = assay: In vitro cell experiment (MTT), TT; format: cell-based; conditions: 72 h, human thyroid carcinoma cells (RET C634W mutation)
Description: as §3, §4

FLT-1 = FLT-1 (Homo sapiens, UniProt P17948); assay: In vitro enzyme experiment (ELISA), FLT-1; format: biochemical; conditions: Poly (Glu, Tyr)4:1 substrate, 5 μM ATP
Sequence of FLT-1 (P17948 27-1338): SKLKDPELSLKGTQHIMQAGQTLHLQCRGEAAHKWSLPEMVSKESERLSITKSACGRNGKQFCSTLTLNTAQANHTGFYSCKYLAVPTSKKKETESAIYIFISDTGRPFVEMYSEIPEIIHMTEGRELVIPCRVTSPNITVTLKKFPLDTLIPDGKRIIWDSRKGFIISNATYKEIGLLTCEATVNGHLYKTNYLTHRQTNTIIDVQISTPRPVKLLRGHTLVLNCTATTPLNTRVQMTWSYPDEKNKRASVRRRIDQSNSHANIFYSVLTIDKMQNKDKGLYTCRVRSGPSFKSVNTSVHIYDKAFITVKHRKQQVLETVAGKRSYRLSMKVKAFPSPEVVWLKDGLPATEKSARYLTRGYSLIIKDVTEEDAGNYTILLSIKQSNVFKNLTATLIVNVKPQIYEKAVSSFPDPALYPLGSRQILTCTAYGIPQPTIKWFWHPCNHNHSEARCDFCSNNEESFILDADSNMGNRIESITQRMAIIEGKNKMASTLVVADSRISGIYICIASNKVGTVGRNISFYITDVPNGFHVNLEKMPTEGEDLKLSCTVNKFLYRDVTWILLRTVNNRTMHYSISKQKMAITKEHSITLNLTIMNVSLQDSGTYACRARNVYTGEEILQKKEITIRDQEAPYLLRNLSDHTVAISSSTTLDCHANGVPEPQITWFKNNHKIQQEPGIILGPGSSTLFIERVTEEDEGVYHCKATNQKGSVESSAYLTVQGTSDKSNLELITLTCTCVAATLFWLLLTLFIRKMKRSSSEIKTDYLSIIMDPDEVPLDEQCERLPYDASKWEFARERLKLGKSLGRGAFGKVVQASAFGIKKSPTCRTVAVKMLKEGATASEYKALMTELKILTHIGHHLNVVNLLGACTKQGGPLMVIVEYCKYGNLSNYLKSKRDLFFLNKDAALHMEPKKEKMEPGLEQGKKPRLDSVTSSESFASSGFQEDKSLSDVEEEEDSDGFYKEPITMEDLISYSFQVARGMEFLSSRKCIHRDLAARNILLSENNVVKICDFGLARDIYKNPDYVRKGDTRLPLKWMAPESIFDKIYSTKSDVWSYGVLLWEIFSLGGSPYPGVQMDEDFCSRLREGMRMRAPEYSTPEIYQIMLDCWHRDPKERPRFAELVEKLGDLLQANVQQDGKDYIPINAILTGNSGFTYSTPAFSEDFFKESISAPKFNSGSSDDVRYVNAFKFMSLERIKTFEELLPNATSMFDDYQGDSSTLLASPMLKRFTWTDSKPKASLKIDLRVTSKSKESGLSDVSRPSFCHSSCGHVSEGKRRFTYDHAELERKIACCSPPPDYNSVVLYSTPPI
Description: FLT-1: Human vascular endothelial growth factor receptor 1
as §2, with “ELISA:” for “AXL: Anaplastic lymphoma kinase Methods: ELISA:”, “nm.” for “nm. The relative inhibition rate of the compound against tyrosine kinase protein was determined. According to the inhibition rates at different concentrations, IC50 was calculated by LOGIT method. The experiments were repeated three times, and the average of three IC50 values was the final index to evaluate the ability of inhibition.”
as §5, §6

A431 = assay: In vitro cell experiment (MTT), A431; format: cell-based; conditions: A-431, 72 h, human epidermoid carcinoma (EGFR1 overexpressing)
How it was run: as §1

HCC827 = assay: In vitro cell experiment (MTT), HCC827; format: cell-based; conditions: 72 h, human non-small cell lung carcinoma (EGFR1 19 exon mutation)
How it was run: as §1

KDR = KDR (Homo sapiens, UniProt P35968); assay: In vitro enzyme experiment (ELISA), KDR; format: biochemical; conditions: Poly (Glu, Tyr)4:1 substrate, 5 μM ATP
Description: KDR: Human vascular endothelial growth factor receptor 2
as §2, with “ELISA:” for “AXL: Anaplastic lymphoma kinase Methods: ELISA:”, “nm.” for “nm. The relative inhibition rate of the compound against tyrosine kinase protein was determined. According to the inhibition rates at different concentrations, IC50 was calculated by LOGIT method. The experiments were repeated three times, and the average of three IC50 values was the final index to evaluate the ability of inhibition.”
as §5, §6

RET = RET (Homo sapiens, UniProt P07949); assay: In vitro enzyme experiment (ELISA), RET; format: biochemical; conditions: Poly (Glu, Tyr)4:1 substrate, 5 μM ATP
Description: RET: A receptor involved in thyroid cancer
as §2, with “ELISA:” for “AXL: Anaplastic lymphoma kinase Methods: ELISA:”, “nm.” for “nm. The relative inhibition rate of the compound against tyrosine kinase protein was determined. According to the inhibition rates at different concentrations, IC50 was calculated by LOGIT method. The experiments were repeated three times, and the average of three IC50 values was the final index to evaluate the ability of inhibition.”
as §5, §6

H292 = assay: In vitro cell experiment (MTT), H292; format: cell-based; conditions: NCI-H292, 72 h, human lung carcinoma cells (EGFR1 overexpressing)
How it was run: as §1

SGC7901 = assay: In vitro cell experiment (MTT), SGC7901; format: cell-based; conditions: SGC-7901, 72 h, human gastric carcinoma cells
Description: as §3, §4

HUVEC = assay: In vitro cell experiment (MTT), HUVEC; format: cell-based; conditions: 72 h, human umbilical vein endothelial cell (KDR overexpressing)
How it was run: as §1

Eca109 = assay: In vitro cell experiment (MTT), Eca109; format: cell-based; conditions: ECa-109, 72 h, human esophageal carcinoma cells
Description: as §3, §4

FGFR-1 = FGFR-1 (Homo sapiens, UniProt P11362); assay: In vitro enzyme experiment (ELISA), FGFR-1; format: biochemical; conditions: Poly (Glu, Tyr)4:1 substrate, 5 μM ATP
Description: FGFR-1: Fibroblast growth factor receptor 1
as §2, with “ELISA:” for “AXL: Anaplastic lymphoma kinase Methods: ELISA:”, “nm.” for “nm. The relative inhibition rate of the compound against tyrosine kinase protein was determined. According to the inhibition rates at different concentrations, IC50 was calculated by LOGIT method. The experiments were repeated three times, and the average of three IC50 values was the final index to evaluate the ability of inhibition.”
as §5, §6

PC-9 = assay: In vitro cell experiment (MTT), PC-9; format: cell-based; conditions: 72 h, human non-small-cell lung carcinoma cells (EGFR1 19 exon mutation)
How it was run: as §1

A375 = assay: In vitro cell experiment (MTT), A375; format: cell-based; conditions: A-375, 72 h, human melanoma cells (KDR expressing)
Description: as §3, §4

[1] = Mouse maximum tolerated dose (MTD) experiment; conditions: in vivo, mice, oral, administered 7 days then observed 7 days
How it was run: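 Oral dosing for 7 days at twofold-spaced levels from 31.25 up to 1000 mg/kg, three randomized, weight-matched healthy mice per level. Animals were then watched for a further 7 drug-free days.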

A549 = assay: In vitro cell experiment (MTT), A549; format: cell-based; conditions: 72 h, human non-small-cell lung carcinoma cells (EGFR1 wildtype)
How it was run: as §1

SK-OV-3 = assay: In vitro cell experiment (MTT), SK-OV-3; format: cell-based; conditions: 72 h, human ovarian carcinoma cells (EGFR2 overexpressing)
How it was run: as §1

BTK = BTK (Homo sapiens, UniProt Q06187); assay: In vitro enzyme experiment (ELISA), BTK; format: biochemical; conditions: Poly (Glu, Tyr)4:1 substrate, 5 μM ATP
Sequence of BTK (Q06187 whole entry, species assumed): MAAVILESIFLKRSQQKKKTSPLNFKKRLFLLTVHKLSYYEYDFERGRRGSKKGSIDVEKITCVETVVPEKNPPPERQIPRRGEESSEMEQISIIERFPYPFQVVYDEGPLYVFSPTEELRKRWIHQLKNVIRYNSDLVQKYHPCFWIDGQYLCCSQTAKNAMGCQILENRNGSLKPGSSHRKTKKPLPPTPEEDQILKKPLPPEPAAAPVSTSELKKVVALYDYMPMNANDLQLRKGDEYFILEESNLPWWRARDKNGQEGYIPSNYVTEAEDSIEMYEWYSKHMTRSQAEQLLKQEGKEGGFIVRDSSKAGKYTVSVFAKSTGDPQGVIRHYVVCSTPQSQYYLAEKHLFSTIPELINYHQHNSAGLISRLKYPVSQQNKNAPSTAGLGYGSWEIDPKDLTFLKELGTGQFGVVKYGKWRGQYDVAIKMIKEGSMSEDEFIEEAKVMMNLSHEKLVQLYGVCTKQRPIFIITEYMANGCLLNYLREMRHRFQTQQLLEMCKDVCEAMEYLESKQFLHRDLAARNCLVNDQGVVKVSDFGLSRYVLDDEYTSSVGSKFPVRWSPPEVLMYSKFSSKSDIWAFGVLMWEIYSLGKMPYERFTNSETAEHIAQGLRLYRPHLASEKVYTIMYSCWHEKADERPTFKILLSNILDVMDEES
Description: BTK: Bruton tyrosine kinase
as §2, with “ELISA:” for “AXL: Anaplastic lymphoma kinase Methods: ELISA:”, “nm.” for “nm. The relative inhibition rate of the compound against tyrosine kinase protein was determined. According to the inhibition rates at different concentrations, IC50 was calculated by LOGIT method. The experiments were repeated three times, and the average of three IC50 values was the final index to evaluate the ability of inhibition.”
as §5, §6

PDGFRβ = PDGFRβ (Homo sapiens, UniProt P09619); assay: In vitro enzyme experiment (ELISA), PDGFRβ; format: biochemical; conditions: Poly (Glu, Tyr)4:1 substrate, 5 μM ATP
Sequence of PDGFRβ (P09619 33-1106, species assumed): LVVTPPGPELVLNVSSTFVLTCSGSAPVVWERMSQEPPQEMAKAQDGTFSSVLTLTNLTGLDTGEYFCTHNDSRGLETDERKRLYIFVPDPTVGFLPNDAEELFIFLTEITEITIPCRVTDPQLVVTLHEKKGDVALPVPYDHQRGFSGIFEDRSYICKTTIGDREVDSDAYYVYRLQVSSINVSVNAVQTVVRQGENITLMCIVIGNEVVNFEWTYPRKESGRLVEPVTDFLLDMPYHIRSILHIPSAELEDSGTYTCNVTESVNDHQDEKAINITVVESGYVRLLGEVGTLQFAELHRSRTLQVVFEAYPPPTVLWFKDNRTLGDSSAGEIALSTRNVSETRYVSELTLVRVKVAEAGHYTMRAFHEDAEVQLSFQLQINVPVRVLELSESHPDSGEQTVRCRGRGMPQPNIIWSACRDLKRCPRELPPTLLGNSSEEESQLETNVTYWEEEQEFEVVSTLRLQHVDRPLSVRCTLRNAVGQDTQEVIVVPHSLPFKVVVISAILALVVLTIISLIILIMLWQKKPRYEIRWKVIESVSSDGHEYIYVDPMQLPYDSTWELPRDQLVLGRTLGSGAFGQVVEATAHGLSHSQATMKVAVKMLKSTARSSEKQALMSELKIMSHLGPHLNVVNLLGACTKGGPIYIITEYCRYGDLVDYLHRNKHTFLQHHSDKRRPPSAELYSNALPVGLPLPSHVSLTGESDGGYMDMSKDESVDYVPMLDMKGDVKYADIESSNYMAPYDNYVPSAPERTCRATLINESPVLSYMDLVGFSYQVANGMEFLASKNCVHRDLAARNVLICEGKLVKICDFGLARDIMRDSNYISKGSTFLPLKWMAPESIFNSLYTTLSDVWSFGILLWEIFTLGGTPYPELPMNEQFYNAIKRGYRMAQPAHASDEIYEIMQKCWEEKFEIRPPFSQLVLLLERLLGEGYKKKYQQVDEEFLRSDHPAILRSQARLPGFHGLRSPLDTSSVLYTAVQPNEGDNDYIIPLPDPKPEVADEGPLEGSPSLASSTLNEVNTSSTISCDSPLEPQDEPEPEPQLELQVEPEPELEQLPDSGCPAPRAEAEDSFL
Description: PDGFRβ: Platelet-derived growth factor receptor β
as §2, with “ELISA:” for “AXL: Anaplastic lymphoma kinase Methods: ELISA:”, “nm.” for “nm. The relative inhibition rate of the compound against tyrosine kinase protein was determined. According to the inhibition rates at different concentrations, IC50 was calculated by LOGIT method. The experiments were repeated three times, and the average of three IC50 values was the final index to evaluate the ability of inhibition.”
as §5, §6

CFPAC-1 = assay: In vitro cell experiment (MTT), CFPAC-1; format: cell-based; conditions: 72 h, human pancreatic carcinoma cells
Description: as §3, §4

Bel-7402 = assay: In vitro cell experiment (MTT), Bel-7402; format: cell-based; conditions: 72 h, human hepatoma carcinoma cells
How it was run: as §1

HCT116 = assay: In vitro cell experiment (MTT), HCT116; format: cell-based; conditions: HCT-116, 72 h, human colon carcinoma cells
How it was run: as §1

HT-29 = assay: In vitro cell experiment (MTT), HT-29; format: cell-based; conditions: 72 h, human colon carcinoma cells (expressing both c-KIT and PDGFR)
How it was run: as §1

Row | Structure (SMILES) | IC50 (3T3swiss) [nM] | IC50 (AXL) [nM] | IC50 (A498) [nM] | IC50 (EGFR) [nM] | IC50 (TT) [nM] | IC50 (FLT-1) [nM] | IC50 (A431) [nM] | IC50 (HCC827) [nM] | IC50 (KDR) [nM] | IC50 (RET) [nM] | IC50 (H292) [nM] | IC50 (SGC7901) [nM] | IC50 (HUVEC) [nM] | IC50 (Eca109) [nM] | IC50 (FGFR-1) [nM] | IC50 (PC-9) [nM] | IC50 (A375) [nM] | MTD [1] [mg/kg] | IC50 (A549) [nM] | IC50 (SK-OV-3) [nM] | other results
1 | COc1cc2c(Nc3ccc(F)c(Cl)c3)ncnc2cc1OCCCCN(C)C [Compound 37, 4-(3-chloro-4-fluoroanilino)-6-methoxy-7-(4-(dimethylamino)-butoxy)quinazoline] | 1550 | 1720 | 2160 | 98.5 | 134 | 30.4 | 1090 | 0.6 | 15.9 | 15.8 | 39.6 | 4020 | 29.5 | 5750 | 27.7 | 8.7 | 78.2 | 250 to 500 | 1770 | 2090 | IC50 (BTK): 312 nM; IC50 (PDGFRβ): 189 nM; IC50 (CFPAC-1): 5860 nM; IC50 (Bel-7402): 5590 nM; IC50 (HCT116): 562 nM; IC50 (HT-29): 2500 nM
2 | COc1cc2c(Nc3ccc(F)c(Cl)c3)ncnc2cc1OCCCN(C)C [Compound 38, 4-(3-chloro-4-fluoroanilino)-6-methoxy-7-(3-(dimethylamino)-propoxy)quinazoline] | 1560 | 2150 | 2260 | 101 | 115 | 35.6 | 1460 | 0.7 | 17.6 | 19.8 | 45.2 | 3850 | 26.5 | 5930 | 28.9 | 7.7 | 178 | 125 to 250 | 2360 | 2060 | IC50 (BTK): 325 nM; IC50 (PDGFRβ): 268 nM; IC50 (CFPAC-1): 5790 nM; IC50 (Bel-7402): 5940 nM; IC50 (HCT116): 621 nM; IC50 (HT-29): 2660 nM
3 | COc1cc2c(Nc3ccc(F)c(Cl)c3)ncnc2cc1OCCCN1CCCC1 [Compound 39, 4-(3-chloro-4-fluoroanilino)-6-methoxy-7-(3-(pyrrolidin-1-yl)propoxy)quinazoline] | 1750 | 2050 | 2310 | 121 | 186 | 34.6 | 2260 | 0.2 | 18.9 | 10.2 | 45.7 | 4520 | 18.8 | 5750 | 19.6 | 6.6 | 197 | 62.5 to 125 | 2660 | 1320 | IC50 (BTK): 297 nM; IC50 (PDGFRβ): 258 nM; IC50 (CFPAC-1): 5250 nM; IC50 (Bel-7402): 5660 nM; IC50 (HCT116): 510 nM; IC50 (HT-29): 2870 nM
4 | COc1cc2c(Nc3ccc(F)c(Cl)c3)ncnc2cc1OCCCCN1CCCC1 [Compound 40, 4-(3-chloro-4-fluoroanilino)-6-methoxy-7-(4-(pyrrolidin-1-yl)butoxy)quinazoline] | 1810 | 1990 | 2460 | 113 | 93 | 39.8 | 1560 | 0.1 | 18.7 | 17.3 | 56.4 | 3690 | 12.4 | 5460 | 28.4 | 7.8 | 247 | 125 to 250 | 2400 | 1190 | IC50 (BTK): 306 nM; IC50 (PDGFRβ): 241 nM; IC50 (CFPAC-1): 5320 nM; IC50 (Bel-7402): 5880 nM; IC50 (HCT116): 605 nM; IC50 (HT-29): 2330 nM
